Experimental data taken from PubChem BioAssay AID248 (DTP/NCI, 2004).
Toxic doses and inconclusive results are not listed. No stated cut-off is given here; in the data, active means T/C of 150% or more; inactive means T/C below 125%.

Tested on: L1210 leukemia ip in BDF1 mice, survival T/C
Experiment: NCI In Vivo Anticancer Drug Screen. Data for tumor model L1210 Leukemia (intraperitoneal) in B6D2F1 (BDF1) mice
Conditions: endpoint: mean survival time, higher = longer survival
Outline: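 Tumor was transplanted into mice, which were then dosed with test compound or vehicle alone. Survival was recorded for each group, and the treated figure was expressed relative to the control figure.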

[1] = dose: 100.0 mg/kg/injection, schedule: Q04DX003 (ip), vehicle: Klucel (hydroxypropylcellulose) (HPC)
[2] = dose: 200.0 mg/kg/injection, schedule: Q04DX003 (ip), vehicle: Klucel (hydroxypropylcellulose) (HPC)
[3] = dose: 400.0 mg/kg/injection, schedule: Q04DX003 (ip), vehicle: Klucel (hydroxypropylcellulose) (HPC)
[4] = dose: 10.0 mg/kg/injection, schedule: Q01DX001 (ip), vehicle: saline
[5] = dose: 20.0 mg/kg/injection, schedule: Q01DX001 (ip), vehicle: saline
[6] = dose: 100.0 mg/kg/injection, schedule: Q01DX009 (ip), vehicle: saline with Tween-80
[7] = dose: 200.0 mg/kg/injection, schedule: Q01DX009 (ip), vehicle: saline with Tween-80
[8] = dose: 400.0 mg/kg/injection, schedule: Q01DX009 (ip), vehicle: saline with Tween-80
[9] = dose: 100.0 mg/kg/injection, schedule: Q04DX003 (ip), vehicle: saline with Tween-80
[10] = dose: 200.0 mg/kg/injection, schedule: Q04DX003 (ip), vehicle: saline with Tween-80
[11] = dose: 400.0 mg/kg/injection, schedule: Q04DX003 (ip), vehicle: saline with Tween-80
[12] = dose: 200.0 mg/kg/injection, schedule: Q01DX001 (ip), vehicle: other
[13] = dose: 100.0 mg/kg/injection, schedule: Q01DX001 (ip), vehicle: carboxymethylcellulose (CMC)
[14] = dose: 200.0 mg/kg/injection, schedule: Q01DX001 (ip), vehicle: carboxymethylcellulose (CMC)
[15] = dose: 400.0 mg/kg/injection, schedule: Q01DX001 (ip), vehicle: carboxymethylcellulose (CMC)

Measured: T/C

CCCCP(=S)(CCCC)C1CCCC1
inactive: [1] 104 % of control | [2] 107 % of control | [3] 101 % of control

CCCCCCCCCCCCCCCCCC[N+](C)(C)C
inactive: dose: 1.0 mg/kg/injection, schedule: Q01DX015 (ip), vehicle: saline 94 % of control | dose: 2.0 mg/kg/injection, schedule: Q01DX015 (ip), vehicle: saline 94 % of control | dose: 3.12 mg/kg/injection, schedule: Q01DX009 (ip), vehicle: saline 94 % of control | dose: 4.0 mg/kg/injection, schedule: Q01DX015 (ip), vehicle: saline 95 % of control | dose: 6.25 mg/kg/injection, schedule: Q01DX009 (ip), vehicle: saline 94 % of control | dose: 12.5 mg/kg/injection, schedule: Q04DX003 (ip), vehicle: saline 87 % of control

CCCCN(CC)C(=S)[S-].CCCCN(CC)C(=S)[S-].[Zn]
inactive: dose: 2.5 mg/kg/injection, schedule: Q01DX009 (ip), vehicle: saline 100 % of control | dose: 5.0 mg/kg/injection, schedule: Q01DX009 (ip), vehicle: saline 95 % of control | [4] 98 % of control | dose: 10.0 mg/kg/injection, schedule: Q01DX009 (ip), vehicle: saline 95 % of control | dose: 10.0 mg/kg/injection, schedule: Q04DX003 (ip), vehicle: saline 105 % of control | [5] 89 % of control | dose: 20.0 mg/kg/injection, schedule: Q04DX003 (ip), vehicle: saline 103 % of control | dose: 40.0 mg/kg/injection, schedule: Q01DX001 (ip), vehicle: saline 91 % of control

CCOC(=O)C(=O)Nc1onc(C)c1NC(=O)C(=O)OCC
inactive: [6] 89 % of control | [7] 89 % of control | [8] 92 % of control

CCOC(=O)C(C(=O)OCC)=C(C)C
inactive: [6] 95 % of control | [9] 100 % of control | [7] 100 % of control | [10] 100 % of control | [8] 102 % of control | [11] 106 % of control

C=C1c2ccccc2N(C)C1(COc1ccc(Cl)cc1)OC(=O)c1cccc(Cl)c1 (centres undefined)
inactive: dose: 100.0 mg/kg/injection, schedule: Q04DX002 (ip), vehicle: saline 88 % of control | dose: 200.0 mg/kg/injection, schedule: Q04DX002 (ip), vehicle: saline 98 % of control | dose: 400.0 mg/kg/injection, schedule: Q04DX002 (ip), vehicle: saline 98 % of control

COc1ccc(OC)c(CC(Cl)(C#N)C#N)c1
inactive: dose: 12.0 mg/kg/injection, schedule: Q01DX009 (ip), vehicle: Klucel (hydroxypropylcellulose) (HPC) 100 % of control | dose: 25.0 mg/kg/injection, schedule: Q01DX009 (ip), vehicle: Klucel (hydroxypropylcellulose) (HPC) 102 % of control | dose: 50.0 mg/kg/injection, schedule: Q01DX009 (ip), vehicle: Klucel (hydroxypropylcellulose) (HPC) 102 % of control | [2] 105 % of control

Cc1ccc(S(=O)(=O)N2CCOCC2)cc1
inactive: [1] 98 % of control | [2] 100 % of control | [3] 108 % of control

CCOP(=O)(OCC)C1=C(P(=O)(OCC)OCC)C(F)(F)C1(F)F
inactive: dose: 75.0 mg/kg/injection, schedule: Q01DX001 (ip), vehicle: other 102 % of control

O=C(N/N=C\c1cc(Cl)ccc1[N+](=O)[O-])c1ccco1
inactive: [12] 93 % of control

CC(=O)Oc1ccc(OC(C)=O)c2c1CC1(C)OC1(C)C2 (centres undefined)
inactive: dose: 25.0 mg/kg/injection, schedule: Q01DX009 (ip), vehicle: saline 104 % of control | dose: 50.0 mg/kg/injection, schedule: Q01DX009 (ip), vehicle: saline 91 % of control | dose: 100.0 mg/kg/injection, schedule: Q01DX009 (ip), vehicle: saline 89 % of control | dose: 200.0 mg/kg/injection, schedule: Q01DX009 (ip), vehicle: saline 93 % of control | dose: 400.0 mg/kg/injection, schedule: Q01DX009 (ip), vehicle: saline 89 % of control

CCOC(=O)c1cc(C(=O)OCC)c(C)nc1C
inactive: dose: 75.0 mg/kg/injection, schedule: Q01DX001 (ip), vehicle: saline 96 % of control | dose: 75.0 mg/kg/injection, schedule: Q01DX009 (ip), vehicle: saline 94 % of control | [1] 96 % of control | dose: 150.0 mg/kg/injection, schedule: Q01DX001 (ip), vehicle: saline 98 % of control | dose: 150.0 mg/kg/injection, schedule: Q01DX009 (ip), vehicle: saline 94 % of control | [2] 93 % of control | dose: 300.0 mg/kg/injection, schedule: Q01DX001 (ip), vehicle: saline 100 % of control | dose: 300.0 mg/kg/injection, schedule: Q01DX009 (ip), vehicle: saline 91 % of control | [3] 93 % of control

COc1ccc(OC)c(NCCCN2C(=O)c3ccccc3C2=O)c1
inactive: dose: 100.0 mg/kg/injection, schedule: Q04DX002 (ip), vehicle: Klucel (hydroxypropylcellulose) (HPC) 87 % of control | dose: 200.0 mg/kg/injection, schedule: Q04DX002 (ip), vehicle: Klucel (hydroxypropylcellulose) (HPC) 102 % of control | dose: 400.0 mg/kg/injection, schedule: Q04DX002 (ip), vehicle: Klucel (hydroxypropylcellulose) (HPC) 91 % of control

c1ccc(C2SCCSCCS2)cc1
inactive: dose: 25.0 mg/kg/injection, schedule: Q01DX009 (ip), vehicle: saline with Tween-80 92 % of control | dose: 50.0 mg/kg/injection, schedule: Q01DX009 (ip), vehicle: saline with Tween-80 86 % of control | [6] 86 % of control | [1] 102 % of control | [2] 100 % of control | [3] 92 % of control

O=C(O)c1cc(O)c(O)cc1O
inactive: [13] 98 % of control | [14] 108 % of control | [15] 92 % of control

CC(C)(C)OC(=O)N1CC=CCN1C(=O)OC(C)(C)C
inactive: dose: 100.0 mg/kg/injection, schedule: Q01DX001 (ip), vehicle: other 98 % of control | [12] 93 % of control | dose: 400.0 mg/kg/injection, schedule: Q01DX001 (ip), vehicle: other 102 % of control

CC(=O)Nc1ccc(OC(=O)Nc2c(C)cccc2C)cc1
inactive: [1] 100 % of control | [2] 91 % of control | [3] 91 % of control

O=C(CNc1ccc2c(c1)Cc1cc(Br)ccc1-2)c1ccc(Br)cc1
inactive: [13] 105 % of control | [14] 111 % of control | [15] 105 % of control

CC1(C)N=C(N)N=C(N)N1c1ccc(CCCCc2ccc(Cl)cc2Cl)cc1
inactive: dose: 5.0 mg/kg/injection, schedule: Q01DX001 (ip), vehicle: saline 88 % of control | [4] 92 % of control | [5] 103 % of control

O=C(/C(=N\N=C\c1c(O)ccc2ccccc12)c1ccccc1)c1ccccc1
inactive: [9] 96 % of control | [10] 98 % of control | [11] 94 % of control

CCCCC1C(=O)N(c2ccccc2)N(c2ccccc2)C1=O
inactive: dose: 17.0 mg/kg/injection, schedule: Q01DX Z (ip), vehicle: water 97 % of control | dose: 40.0 mg/kg/injection, schedule: Q01DX Z (ip), vehicle: water 100 % of control | dose: 60.0 mg/kg/injection, schedule: Q01DX Z (ip), vehicle: water 103 % of control | dose: 90.0 mg/kg/injection, schedule: Q01DX Z (ip), vehicle: water 100 % of control | dose: 135.0 mg/kg/injection, schedule: Q01DX Z (ip), vehicle: water 114 % of control
